In ChEMBL document CHEMBL1157539, “Thousands of chemical starting points for antimalarial lead identification” (Nature, 2010):

Test system: Plasmodium falciparum
Experiment: GSK_TCMDC: Inhibition of Plasmodium falciparum 3D7 in whole erythrocytes, using parasite LDH activity as an index of growth.
Assay type: functional, organism-based
Settings: not given

| SMILES | XC50 [nM] |
| --- | --- |
| O=C(C=Cc1cccc(Cl)c1Cl)NC1CCC(CN2CCC(c3c[nH]c4ccccc34)CC2)CC1 (centres undefined) | 1140 |

Same assay, conditions: Plasmodium falciparum, 3D7

| SMILES | XC50 [nM] |
| --- | --- |
| CC1(C)NC(N)=NC(=N)N1OCCOc1ccc(Cc2ccccc2)cc1 | 44 |
| Cc1ccc(Nc2nc3cc(Nc4ccnc(Nc5cccc(CS(C)(=O)=O)c5)n4)ccc3o2)cc1 | 923 |
| COc1cccc2cc(C(=O)N[C@@H](CC(C)C)C(=O)Nc3cc(F)ccc3Br)oc12 | 965 |
| CCc1cc(NCc2ccncc2)nc(Nc2ccc(F)cc2)n1 | 1330 |
| Cc1cccc(C(=O)N2CCN(Cc3cccc(NC(=O)c4ccco4)c3)CC2)c1 | 761 |
| Cc1cc2ncn(-c3nccc(NCc4cccnc4)n3)c2cc1C | 664 |
| O=C(C=Cc1cccc(Cl)c1Cl)NC1CCC(CN2CCC(c3c[nH]c4ccccc34)CC2)CC1 (centres undefined) | 680 |
| OCC1CCN(Cc2ccc(-c3ccc(-c4nc5cc(C(F)(F)F)ccc5[nH]4)cc3)cc2)CC1 | 697 |
| O=C(c1csc(-c2cccnc2)n1)N1CCc2cc3nccc(N4CCN5CCC[C@H]5C4)c3cc21 | 695 |
| Cc1noc(-c2ccc(O)cc2O)c1-c1ccc2c(c1)OCCCO2 | 892 |
| CCOC(=O)C(Oc1ccc2ccccc2c1)C(=O)OCC | 756 |
| Cc1cccc2nc(-c3cccc(-c4ccc(C(=O)NCc5nccn5C)cc4)c3)[nH]c12 | 1320 |
| O=C(Nc1ccc(CN2CCCCC2)cc1)c1ccc(COc2ccc([N+](=O)[O-])cc2)o1 | 996 |
| Cc1ccc(NC(=O)c2ccc(N3CCN(c4ccncc4)CC3)cn2)cc1F | 1570 |
| COc1ccc(NC(=O)C2c3ccccc3C(=O)N(CC(C)C)C2c2cccs2)cc1OC (centres undefined) | 203 |
| CC(C)C[C@@H](C(=O)N[C@H](C(=O)Nc1nccs1)C(C)(C)C)[C@H](CCC(F)(F)F)N(O)C=O | 598 |
| Cc1sc(NC(=O)c2ccc([N+](=O)[O-])cc2Cl)c(C(N)=O)c1C | 931 |
| CN(c1cc(NC(=O)c2ccc(F)cc2)ccn1)C1CCN(Cc2cccc(O)c2)CC1 | 922 |
| C=CCN(c1ccc(OC)cc1)S(=O)(=O)c1ccc(Cl)c(C(=O)Nc2cccc(C#N)c2)c1 | 577 |
| CCCCCCCC/C=C\CCCCCCCC(=O)NCc1ccc(O)c(OC)c1 [OLVANIL] | 402 |
| Cc1[nH]c(C)c(-c2ccc(OCCOc3ccc(C(F)(F)F)cn3)cc2)c(=O)c1Br | 138 |
| CCC1CCCCN1S(=O)(=O)c1ccc(OC)c(N2CCN(C(=O)C(Cl)(Cl)Cl)CC2)c1 (centres undefined) | 1120 |
| Cc1cc(-c2ccc3c(c2)CC[C@@H](N[C@@H](C)c2ccccc2)C3)cnc1N | 1730 |
| CCCCCn1c(Sc2ccc(C#N)c([N+](=O)[O-])c2)nnc1-c1ccc(Cl)cc1 | 1080 |
| CCCc1ccc(S(=O)(=O)NC2CCN(c3ccnc(Nc4ccc(F)cc4)n3)C2)cc1 (centres undefined) | 1010 |

| SMILES | XC50 [nM] |
| --- | --- |
| CCCCN1CCCC[C@H]1[C@@H](O)c1ccnc2ccc(OCC)cc12 | 773 |
| O=S(=O)(NCCN1CCCC1)c1ccc(-c2cccc(CNCCc3cccs3)c2)s1 | 705 |
| COc1ccc(-c2nonc2NC(=O)c2ccc(C(C)(C)C)cc2)cc1OC | 814 |
| COc1cc(NC(=O)c2sc(-c3ccc(Cl)cc3)cc2NC(=O)N2CCCC2)ccc1OCCN1CCCC1 | 569 |
| CC(Cc1ccc(Oc2ccc(Cl)cc2)cc1)NCC(O)c1cccc(Cl)c1 (centres undefined) | 739 |
| CS(=O)(=O)Nc1ccc(-c2ccc3ccnc(N)c3c2)cc1 | 614 |
| COc1ccc(NC(=O)[C@H](CC(C)C)Nc2cc(C)nc(NCC3CCCCC3)n2)cc1 | 1100 |
| CN(C)c1ccc(C=Cc2nc(=O)c3ccccc3o2)cc1 | 44.6 |
| CCc1ccc(CN2CCC(NC(=O)c3cc(-c4ccc(N(C)C)cc4)cs3)C2)cc1 (centres undefined) | 1440 |
| CN(C)c1cccc2c1nc(-c1ccc3c(c1)CCO3)n2CCNCc1ccccc1 | 734 |
| CN(c1ccnc(Nc2ccc(CS(C)(=O)=O)cc2)n1)C1CCN(Cc2ccccc2)CC1 | 1400 |
| Cc1cc(CNCCCCCCCNCc2ccc(Cl)cc2)ccc1O | 975 |
| CCC[C@@H]([C@@H](CC1CCCCC1)C(=O)N[C@H](C(=O)Nc1nccc(N)n1)C(C)(C)C)N(O)C=O | 528 |
| Fc1ccc(C=NN=c2cc[nH]c3ccccc23)cc1 | 706 |
| CC(C)CC(=O)Nc1cc(=O)[nH]c2nc(-c3ccccc3)nn12 | 351 |
| COc1cc(C2=NN(S(=O)(=O)c3c(Cl)cc(Cl)cc3Cl)CCCC2)ccc1Cl | 291 |
| O=C(Nc1nc2ccc(Cl)cc2s1)c1csnn1 | 786 |
| COc1cccc2cc(C(=O)N[C@@H](CC(C)C)C(=O)NC(/C=N/NC(=O)c3ccccc3)CCc3ccccc3)oc12 (some centres undefined) | 577 |
| Cc1ccc2c(c1)NCC21CCN(C[C@@H](O)C2CCN(c3cc(C#N)ccn3)CC2)CC1C (some centres undefined) | 606 |
| CC(C)(C)c1ccc(C(=O)N2CCC3(CC2)C(=O)N(CC(=O)NCC2CCCO2)CN3c2ccccc2)cc1 (centres undefined) | 231 |
| COc1ccc(CNC(=O)c2cnc3c(O)cccc3c2Nc2cccc(NC(=O)c3ccc(Cl)c(Cl)c3)c2)cc1 | 604 |
| CC(C)(C)c1ccc(OCCCON2C(N)=NC(N)=NC2(C)C)cc1 | 3.2 |
| Nc1nccc2ccc(-c3cccc(OCc4ccccc4)c3)cc12 | 289 |
| CCN(CC)CCN1C(=O)C(O)(c2ccccc2Cl)c2c1cc(C(N)=O)cc2C(F)(F)F (centres undefined) | 703 |
| O=S(=O)(c1cc(Cl)sc1Cl)N(CCC(O)(C(F)(F)F)C(F)(F)F)Cc1cccc(O)c1 | 744 |

| SMILES | XC50 [nM] |
| --- | --- |
| Cc1n[nH]c2ccc(-c3cc(OC[C@@H](N)Cc4ccccc4)cnc3-c3cc4ccccc4s3)cc12 | 810 |
| COc1cc2nc(NCCn3cccn3)nc(NCCc3ccccc3)c2cc1OC | 281 |
| Cc1ccnc2nc(C(=O)Nc3cc(C(F)(F)F)ccc3N3CCCCC3)nn12 | 61.8 |
| CCN(CC)CCOc1ccc(C(O)(C#CC(O)(c2ccc(C)cc2)c2ccc(OCCN(CC)CC)cc2)c2ccc(C)cc2)cc1 (centres undefined) | 903 |
| CCN1CCN(c2ccc(Nc3c4ccccc4nc4ccccc34)cc2)CC1 | 718 |
| Nc1c2ccccc2nc2cc(C(F)(F)F)ccc12 | 842 |
| Cc1c(CC(=O)N(C)C2CCN(CCCCCNC(=O)/C=C/c3ccc(Cl)c(Cl)c3)CC2)sc2ccc(Cl)cc12 | 1160 |
| C=CCc1cc(Br)ccc1OCCCOc1c(C)nc(N)nc1N | 3.2 |
| CCOc1cc(C)ccc1C1CCN(CCCCNC(=O)c2cccc(-c3ccc(C(F)(F)F)cc3)c2)CC1 | 937 |
| COC(=O)c1cccc(NC(=O)NC2CCN(c3ccnc(NCc4ccc(F)cc4)n3)CC2)c1 | 809 |
| N#Cc1ccc(NC(=O)N2CCCN(CCCCCNC(=O)/C=C/c3ccc(Cl)c(Cl)c3)CC2)cc1 | 768 |
| COc1ccc(CC(C)NCC(O)c2cccc(C(F)(F)F)c2)cc1F (centres undefined) | 827 |
| COCCNCc1ccc(-c2ccc(CNC3CCN(Cc4ccccc4)CC3)cc2)cc1 | 669 |
| Cc1c(S(=O)(=O)Nc2ccc3ccn(CCN(C)C)c3c2)sc2ccc(Cl)cc12 | 921 |
| CCCCCN1CCCC(CNS(=O)(=O)c2cccc(C(=O)Nc3ccc(C(F)(F)F)cc3)c2)C1 (centres undefined) | 829 |
| O=C(NCCCCN1CCC(c2ccc3ccccc3c2O)CC1)c1ccc(NC(=O)c2ccc(Cl)cc2)cc1 | 1010 |
| O=C(NCC(CCN1CCC(c2c[nH]c3ccccc23)CC1)c1ccccc1)Nc1ccc(Cl)c(Cl)c1 (centres undefined) | 833 |
| CCc1ccc2nc(-c3ccc(F)cc3)nc(SCC(=O)Nc3sc(C)c(C)c3C#N)c2c1 | 643 |
| Cc1cc(N2CCN(C)CC2)nc2ccc(NC(=O)Cc3cccc(C(F)(F)F)c3)cc12 | 737 |
| O=C1CCCN1CCCNCc1ccc(-c2ccc(-c3nc4cc(C(F)(F)F)ccc4[nH]3)s2)cc1 | 380 |
| CC1CN=C(Nc2ncc(Cl)cc2Cl)N1 (centres undefined) | 237 |
| CC(=O)c1ccc(N2CCN(CCC3(c4ccc(Cl)c(Cl)c4)COCN(C(=O)c4ccccc4)C3)CC2)cc1 (centres undefined) | 925 |
| O=C(Cc1cccs1)NC(CCCN1CCC(Oc2cccc(Cl)c2)CC1)c1ccc(Cl)c(Cl)c1 (centres undefined) | 247 |
| CC(CN(C)C)C(=O)Nc1cccc(-c2ccc(-c3nc4ccccc4[nH]3)cc2)c1 (centres undefined) | 706 |
| COc1ccc(C(O)CNC(C)CCc2ccc(F)cc2)cc1C(F)(F)F (centres undefined) | 747 |

| SMILES | XC50 [nM] |
| --- | --- |
| O=C(Nc1cccc(-c2nc3ccccc3s2)c1)c1ccccc1[N+](=O)[O-] | 767 |
| COc1ccc2nccc([C@@H](O)CN3CCC(NC(=O)c4ccc(Cl)c(Cl)c4)CC3)c2c1 | 614 |
| O=C(N[C@@H](CC1CCCCC1)C(=O)NCCN1CCCCC1)c1ccc(O)c(-c2ccc(Cl)c(Cl)c2)c1 | 148 |
| COc1ccc(CCCN2C(=O)C(c3ccccc3)(c3ccccc3)N=C2N)cc1 | 1050 |
| N=C(/N=C(/NCCCCCCN/C(=N\C(=N)Nc1ccc(Cl)cc1)N1CCOCC1)N1CCOCC1)Nc1ccc(Cl)cc1 | 713 |
| CCCCN(CCCC)CCNC(=O)c1cc(OC(F)(F)F)ccc1O | 920 |
| O=C(Cn1c(CCc2cccc(F)c2F)nc(=O)c2ccccc21)N(CCN1CCCC1)Cc1ccc(-c2ccc(C(F)(F)F)cc2)cc1 | 711 |
| O=C(/C=C/c1ccc(Cl)c(Cl)c1)NCCCCCN1CCCN(C(=O)Nc2ccc(Cl)c(Cl)c2)CC1 | 864 |
| CN1CCN(CCCN(Cc2csc(-c3ccc(CNCc4ccccc4)cc3)n2)C(=O)c2cc(F)cc(F)c2)CC1 | 708 |
| COc1ccc(-c2cn3c(C(=O)Nc4ccccc4Cl)c(-c4ccccc4)c4c3n2CCCC4)cc1 | 792 |
| CS(=O)(=O)c1cccc(-c2cnc3[nH]cc(-c4ccc(C(=O)O)cc4)c3c2)c1 | 335 |
| CC(C)(CNCc1ccc(Cl)cc1)c1nc(-c2ccc(Cl)c(O)c2)c(-c2ccncc2)[nH]1 | 476 |
| O=C(NCCN1CCOCC1)c1ccc(N2CCC(Oc3ccc4ccccc4c3)CC2)nc1 | 763 |
| CSc1ccc(C=CC(=O)NC(=O)c2ccccc2O)cc1 | 289 |
| CCCCn1c(C(C)Oc2ccc(Cl)cc2Cl)nc2cc(S(N)(=O)=O)ccc21 (centres undefined) | 707 |
| O=C(Cn1cnc2c(nnn2Cc2ccccc2F)c1=O)Nc1ccc2c(c1)OCCO2 | 949 |
| c1cncc(Oc2ccc(Nc3ccnc4cc(-c5cccc(CN6CCCCC6)c5)ccc34)cc2)c1 | 124 |
| Cc1cccc(C)c1C1CCN(C2CCC(NC(=O)/C=C/c3ccccc3)CC2)CC1 (centres undefined) | 581 |
| Nc1nc(N)c2c(CCc3ccc4ccccc4c3)cccc2n1 | 693 |
| COc1cc(NC(=O)CCCCCCCN2CCN(C)CC2)c2ncccc2c1 | 611 |
| C[C@@H](CC1CCCCC1)NCc1ccccc1O | 932 |
| O=C(NC1CCN(CCN2CCC(c3ccccc3C(F)(F)F)CC2)CC1)c1ccc(-c2ccc(Cl)cc2)cc1 | 714 |
| O=C(CNc1ccc(Cl)c(S(=O)(=O)N2CCCC2)c1)Nc1ccc(Br)cc1F | 321 |
